Assay results from patent publication US6821980B1, “Substituted 5-benzyl-2,4-diaminopyrimidines” (Basilea Pharmaceutica AG, priority 1999, dated 2004).
Values after ≈ are worked out from the molar mass of the structure shown. Where two headings read alike, the source gives them in different places.

Experiments:
[1] = biological target: purified DHFR of strain 157/4696 of Staphylococcus aureus (Staphylococcus aureus, UniProt P13955); assay: biochemical
[2] = test system: Staphylococcus aureus 101; assay: MIC against Staphylococcus aureus 101; assay type: cell-based; conditions: Staphylococcus aureus 101, MRSA- and trimethoprim-resistant, clinical isolate; for MIC: read-out: MIC Sa101
[3] = test system: Streptococcus pneumoniae 1/1; assay: MIC against Streptococcus pneumoniae 1/1; assay type: cell-based; conditions: Streptococcus pneumoniae 1/1, trimethoprim- and penicillin-resistant, serotype 6, clinical isolate; for MIC: read-out: MIC Sp1/1
[4] = biological target: T1, purified DHFR of strain Sp1/1 of Streptococcus pneumoniae (Streptococcus pneumoniae serotype 4, UniProt Q54801); assay type: biochemical; conditions: IC50 against purified DHFR of strain Sp1/1
T1 sequence (Q54801 1-168 I100L): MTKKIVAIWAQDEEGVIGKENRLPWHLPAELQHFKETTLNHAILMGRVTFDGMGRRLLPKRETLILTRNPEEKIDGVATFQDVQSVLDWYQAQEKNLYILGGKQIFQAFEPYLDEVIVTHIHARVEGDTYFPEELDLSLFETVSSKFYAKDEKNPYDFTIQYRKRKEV

Sequence of purified DHFR of strain 157/4696 of Staphylococcus aureus (P13955 whole entry): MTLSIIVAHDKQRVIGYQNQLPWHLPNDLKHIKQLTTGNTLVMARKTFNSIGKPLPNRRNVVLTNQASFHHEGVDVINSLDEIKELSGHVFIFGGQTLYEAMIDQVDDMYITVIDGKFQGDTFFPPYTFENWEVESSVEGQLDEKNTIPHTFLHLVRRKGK

Row | SMILES | IC50 [1] [nM] | MIC ([2]; Table 1) [µg/mL] | MIC ([3]; Table 1) [µg/mL] | IC50 ([4]; Table 1) [nM] | MIC ([2]; Table 2) [µg/mL] | MIC ([3]; Table 2) [µg/mL] | IC50 ([4]; Table 2) [nM] | IC50 ([1]; Table 2, IC50 against purified DHFR of strain 157/4696 (highly trimethoprim-resistant; clinical isolate), read-out: DHFR Sa1) [nM] | MIC Sa101 ([2]; Table 2) [µg/mL] | MIC Sp1/1 ([3]; Table 2) [µg/mL]
1 | CCOc1cc(Cc2cnc(N)nc2N)cc(OS(=O)(=O)N(C)C)c1-c1ccc(C)c(N)c1 [Example 31a, Dimethylsulphamic acid 3′-amino-4-(2,4-diamino-pyrimidin-5-ylmethyl)-6-ethoxy-4′-methyl-biphenyl-2-yl ester] | 110 | 1 (≈ 2.12 µM) | 1 (≈ 2.12 µM) | 1.9 |  |  |  |  |  | 
2 | CCOc1cc(Cc2cnc(N)nc2N)cc(OS(=O)(=O)N(C)C2CC2)c1-c1ccc(O)cc1 [Example 20-f, N-Cyclopropld-N-methyl-sulphamic acid 4-(2,4-diamino-pyrimidin-5-ylmethyl)-6-ethoxy-4′-hydroxy-biphenyl-2-yl ester] | 140 |  |  |  | 1 (≈ 2.06 µM) | 1 (≈ 2.06 µM) | 9.8 |  |  | 
3 | C=C(C)COc1cc(Cc2cnc(N)nc2N)cc(OCC)c1-c1ccc2c(c1)OCO2 [Example 10-f, 5-[4-Benzo[1.3]dioxol-5-yl-3-ethoxy-5-(2-methyl-allyloxy)-benzyl]-pyrimidine-2,4-diamine] | 1800 |  |  |  | 8 (≈ 18.4 µM) | 8 (≈ 18.4 µM) | 85 |  |  | 
4 | CCOc1cc(Cc2cnc(N)nc2N)cc(OS(=O)(=O)N(C)C2CC2)c1-c1ccc(N)c(C)c1 [Example 27-c, N-Cyclopropyl-N-methyl-sulphamic acid 4′-amino-4-(2,4-diamino-pyrimidin-5-ylmethyl)-6-ethoxy-3′-methyl-biphenyl-2-yl ester] | 180 |  |  |  | 1 (≈ 2.01 µM) | 1 (≈ 2.01 µM) | 2.6 |  |  | 
5 | CCOc1cc(Cc2cnc(N)nc2N)cc(OCC)c1-c1ccc2c(c1)CCCN2 [Example 49-, 5-[3,5-Diethoxy-4-(1,2,3,4-tetrahydro-quinolin-6-yl)-benzyl]-pyrimidine-2,4-diamine] | 820 |  |  |  | 4 (≈ 9.53 µM) | 8 (≈ 19.1 µM) | 46 |  |  | 
6 | CCOc1cc(Cc2cnc(N)nc2N)cc(OCC)c1-c1ccc2ncccc2c1 [Example 04-m, 5-(3,5-Diethoxy-4-quinolin-6-yl-benzyl)-pyrimidine-2,4-diamine] | 1800 |  |  |  | 8 (≈ 19.3 µM) | 8 (≈ 19.3 µM) | 72 |  |  | 
7 | CCOc1cc(Cc2cnc(N)nc2N)cc(OS(=O)(=O)C2CC2)c1-c1ccc(C)c(N)c1 [Example 34-f, Cyclopropanesulphonic acid 3′-amino-4-(2,4-diamino-pyrimidin-5-ylmethyl)-6-ethoxy-4′-methyl-biphenyl-2-yl ester] | 97 |  |  |  | 2 (≈ 4.26 µM) | 1 (≈ 2.13 µM) | 9.5 |  |  | 
8 | CCOc1cc(Cc2cnc(N)nc2N)cc(OCC)c1-c1cccc(C#N)c1 [Example 02-u, 4′-(2,4-Diamino-pyrimidin-5-ylmethyl)-2′,6′-diethoxy-biphenyl-3-carbonitrile] | 4000 |  |  |  | 8 (≈ 20.5 µM) | 4 (≈ 10.3 µM) | 180 |  |  | 
9 | CCOc1cc(Cc2cnc(N)nc2N)cc(OS(=O)(=O)CC(C)C)c1-c1ccc(OCCOC)cc1 [Example 63-, 2-Methyl-propane-1-sulphonic acid 4-(2,4-diamino-pyrimidin-5-ylmethyA)-6-ethoxy-4′-(2-methox-ethoxy)-biphenyl-2-yl ester] | 380 |  |  |  | 4 (≈ 7.54 µM) | 1 (≈ 1.88 µM) | 1.8 |  |  | 
10 | CCOc1cc(Cc2cnc(N)nc2N)cc(OS(=O)(=O)CC(C)(C)C)c1-c1cccc(N)c1 [Example 14-i, 2,2-Dimethyl-propane-1-sulphonic acid 3′-amino-4-(2,4-diamino-pyrimidin-5-ylmethyl)-6-ethoxy-biphenyl-2-yl ester] | 220 |  |  |  | 8 (≈ 16.5 µM) | 0.5 (≈ 1.03 µM) | 5.4 |  |  | 
11 | CCOc1cc(Cc2cnc(N)nc2N)cc(OCC2CC2)c1-c1ccc(CN2CCOCC2)s1 [Example 23-, 5-[3-Cyclopropylmethoxy-5-ethoxy-4-(5-morpholin-4-ylmethyl-thiophen-2-yl)-benzyl]-pyrimidine-2,4-diamine] | 2600 |  |  |  | 8 (≈ 16.1 µM) | 1 (≈ 2.02 µM) | 8 |  |  | 
12 | CCOc1cc(Cc2cnc(N)nc2N)cc(OS(=O)(=O)C2CCOCC2)c1-c1ccc(N)c(C)c1 [Example 41-a, Tetrahydropyran-4-sulphonic acid 4′-amino-4-(2,4-diamino-pyrimidin-5-ylmethyl)-6-ethoxy-3′-methyl-biphenyl-2-yl ester] | 55 |  |  |  | 2 (≈ 3.89 µM) | 0.5 (≈ 0.973 µM) | 0.3 |  |  | 
13 | CCOc1cc(Cc2cnc(N)nc2N)cc(OCC)c1-c1cc(C)cc(N)c1 [Example 04-ae, 5-(5′-Amino-2,6-diethoxy-3′-methyl-biphenyl-4-ylmethyl)-pyrimidine-2,4-diamine] | 1400 |  |  |  | 8 (≈ 20.3 µM) | 8 (≈ 20.3 µM) | 19 |  |  | 
14 | CCOc1cc(Cc2cnc(N)nc2N)cc(OS(=O)(=O)CC)c1-c1cccc(N)c1 [Example 14-b, Ethanesulphonic acid 3′-amino-4-(2,4-diamino-pyrimidin-5-ylmethyl)-6-ethoxy-biphenyl-2-yl ester] | 140 |  |  |  | 2 (≈ 4.51 µM) | 2 (≈ 4.51 µM) | 19 |  |  | 
15 | CCOc1cc(Cc2cnc(N)nc2N)cc(OCC2CC2)c1-c1ccc(OC)c(N)c1 [Example 12-, 5-(3′-Amino-2-cyclopropylmethoxy-6-ethoxy-4′-methoxy-biphenyl-4-ylmethl)-pyrimidine-2,4-diamine] | 1800 |  |  |  | 8 (≈ 18.4 µM) | 2 (≈ 4.59 µM) | 14 |  |  | 
16 | CCOc1cc(Cc2cnc(N)nc2N)cc(OS(=O)(=O)CC2CCCO2)c1-c1cccc(N)c1 (stereo not drawn) [Example 42-a, Tetrahydrofuran-2-yl-methanesulphonic acid 3′-amino-4-(2,4-diamino-pyrimidin-5-ylmethyl)-6-ethoxy-biphenyl-2-yl ester] | 250 |  |  |  | 8 (≈ 16 µM) | 2 (≈ 4 µM) | 5.7 |  |  | 
17 | CCOc1cc(Cc2cnc(N)nc2N)cc(OCC)c1-c1ccc(OCC(N)=O)cc1 [Example 46-, 2-[4′-(2,4-Diamino-pylimidin-5-ylmethyl)-2′,6′-diethoxy-biphenyl-4-yloxy]-acetamide] | 750 |  |  |  | 8 (≈ 18.3 µM) | 2 (≈ 4.57 µM) | 55 |  |  | 
18 | CCOc1cc(Cc2cnc(N)nc2N)cc(OS(=O)(=O)CC2CC2)c1-c1ccc(CN2CCOCC2)c(N)c1 [Example 38-d, Cyclopropylmethane-sulphonic acid 3′-amino-4-(2,4-diamino-pyrimidin-5-ylmethyl)-6-ethoxy-4′-morpholinemethyl-biphenyl-2-yl ester] |  |  |  |  |  |  | 3.2 | 240 | 4 (≈ 7.03 µM) | 1 (≈ 1.76 µM)
19 | CCOc1cc(Cc2cnc(N)nc2N)cc(OCC)c1-c1ccc(N(C)C)cc1 [Example 02-v, 5-(4′-Dimethylamino-2,6-diethoxy-biphenyl-4-ylmethyl)-pyrimidine-2,4-diamine] | 10000 |  |  |  | 8 (≈ 19.6 µM) | 4 (≈ 9.82 µM) | 110 |  |  | 
20 | CCOc1cc(Cc2cnc(N)nc2N)cc(OS(=O)(=O)CC(C)C)c1-c1ccc(OCCO)cc1 [Example 61-a, 2-Methyl-propane-1-sulphonic acid 4-(2,4-diamino-pyrimidin-5-ylmethyl)-6-ethoxy-4′-(2-hydroxy-ethoxy)-biphenyl-2-yl ester] | 550 |  |  |  | 2 (≈ 3.87 µM) | 0.5 (≈ 0.968 µM) | 1.8 |  |  | 
21 | CCCOc1cc(Cc2cnc(N)nc2N)cc(OCCC)c1-c1cccc(O)c1 [Example 52-, 4′-(2,4-Diamino-pyrimidin-5-ylmethyl)-2′,6′-digropobiphenyl-3-ol] | 5800 |  |  |  | 8 (≈ 19.6 µM) | 1 (≈ 2.45 µM) | 20 |  |  | 
